According to ChEMBL document CHEMBL1201862, “PubChem BioAssay data set” (2004):
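Five concentrations, 48 hours, 96-well plates. The concentration for 50% growth inhibition is given as GI50.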 Activity calls are given as the source filed them. Cut-off read from the data, not from the text of the source: active = GI50 up to about 1.1 µM and inactive = higher.

Columns and labels:
Experiment in all cases: NCI tumour cell line growth inhibition, 48 h
Hs-578T = system: Hs-578T
SW-620 = system: SW-620
HCT-15 = system: HCT-15
HL-60 = system: HL-60
SK-MEL-28 = system: SK-MEL-28
HCC 2998 = system: HCC 2998
BT-549 = system: BT-549
NCI-H23 = system: NCI-H23
Malme-3M = system: Malme-3M
MOLT-4 = system: MOLT-4
SR = system: SR
MDA-MB-231 = system: MDA-MB-231
SK-OV-3 = system: SK-OV-3
SK-MEL-2 = system: SK-MEL-2
OVCAR-3 = system: OVCAR-3
U-251 = system: U-251
MDA-MB-435 = system: MDA-MB-435
RPMI-8226 = system: RPMI-8226
HOP-92 = system: HOP-92
IGROV-1 = system: IGROV-1

SMILES | GI50 (Hs-578T) | GI50 (SW-620) | GI50 (HCT-15) [µM] | GI50 (HL-60) | GI50 (SK-MEL-28) | GI50 (HCC 2998) | GI50 (BT-549) | GI50 (NCI-H23) | GI50 (Malme-3M) | GI50 (MOLT-4) | GI50 (SR) | GI50 (MDA-MB-231) | GI50 (SK-OV-3) | GI50 (SK-MEL-2) | GI50 (OVCAR-3) | GI50 (U-251) | GI50 (MDA-MB-435) | GI50 (RPMI-8226) | GI50 (HOP-92) | GI50 (IGROV-1)
COC(=O)[C@@H]1C[C@@H]2c3ccccc3N(S(=O)(=O)c3ccccc3)[C@@H]2N1C(=O)OC | > 100 µM (inactive) | > 100 µM (inactive) | > 100 | > 100 µM (inactive) | > 100 µM (inactive) | > 100 µM (inactive) | > 100 µM (inactive) | 37.1 µM (inactive) | > 100 µM (inactive) | > 100 µM (inactive) | > 100 µM (inactive) | > 100 µM (inactive) | > 100 µM (inactive) | > 100 µM (inactive) | > 100 µM (inactive) | > 100 µM (inactive) | > 100 µM (inactive) | > 100 µM (inactive) | > 100 µM (inactive) | > 100 µM (inactive)
CNC(=O)N(C1=NCC(C)S1)c1ccc(C)c(C)c1 (configuration not stated) | 4.31 µM (inactive) | 3.48 µM (inactive) | 2.77 | 1.17 µM (inactive) | 8.49 µM (inactive) | 4.28 µM (inactive) | 27.3 µM (inactive) | 7.08 µM (inactive) | 4.15 µM (inactive) | 4.81 µM (inactive) | 3.67 µM (inactive) | 12.1 µM (inactive) | 4.28 µM (inactive) | 1.87 µM (inactive) | 2.4 µM (inactive) | 3.59 µM (inactive) | 0.706 µM (active) | 2.81 µM (inactive) | 5.78 µM (inactive) | 8.89 µM (inactive)
C/C=C1\C[C@@H]2C(OC)Nc3cc(O)c(OC)cc3C(=O)N2C1 (some centres not stated) | 0.0142 µM (active) | < 0.01 µM (active) | < 0.01 | < 0.01 µM (active) | < 0.0107 µM (active) | 0.0158 µM (active) | 0.00437 µM (active) |  | < 0.01 µM (active) | < 0.01 µM (active) | 0.000431 µM (active) | < 0.01 µM (active) | < 0.01 µM (active) | < 0.01 µM (active) | < 0.01 µM (active) | < 0.01 µM (active) | < 0.01 µM (active) | < 0.01 µM (active) | < 0.01 µM (active) | < 0.01 µM (active)
O=[N+]([O-])c1cc(Cc2cc([N+](=O)[O-])c3cccnc3c2O)c(O)c2ncccc12 | 9.51 µM (inactive) | 5.94 µM (inactive) | 4.23 | 1.61 µM (inactive) | 13.6 µM (inactive) |  | 21.7 µM (inactive) | 9.48 µM (inactive) | 6.68 µM (inactive) | 2.12 µM (inactive) | 0.845 µM (active) | 3.4 µM (inactive) | 15.7 µM (inactive) | 11.1 µM (inactive) | 2.38 µM (inactive) | 3.91 µM (inactive) | 10.5 µM (inactive) | 4.57 µM (inactive) | 5.96 µM (inactive) | 3.31 µM (inactive)
Cc1cc(NS(=O)(=O)c2ccc(NC(=O)c3ccc4nc5ccccc5c(Nc5ccc(S(N)(=O)=O)cc5)c4c3)cc2)no1 | 31.9 µM (inactive) | 28.1 µM (inactive) | 19.2 | 22.7 µM (inactive) | 21 µM (inactive) | 38.9 µM (inactive) | 28 µM (inactive) | 33 µM (inactive) | 21.5 µM (inactive) | 22.3 µM (inactive) | 25.1 µM (inactive) | 24 µM (inactive) | > 100 µM (inactive) | 23.9 µM (inactive) | 27.5 µM (inactive) | 25.5 µM (inactive) | 21.4 µM (inactive) | 24.7 µM (inactive) | 24.6 µM (inactive) | 33.4 µM (inactive)
S=c1ssc2c3ssc(=S)c3n(Cc3ccccc3)c12 | > 100 µM (inactive) | > 100 µM (inactive) | 39.3 | > 100 µM (inactive) | > 100 µM (inactive) | > 100 µM (inactive) | > 100 µM (inactive) | > 100 µM (inactive) | > 100 µM (inactive) | 4.9 µM (inactive) | 0.67 µM (active) | > 100 µM (inactive) | > 100 µM (inactive) | > 100 µM (inactive) | > 100 µM (inactive) | 60.5 µM (inactive) | > 100 µM (inactive) | > 100 µM (inactive) | > 100 µM (inactive) | > 100 µM (inactive)
Nc1c(/C=C/c2cc3cc(C4=NCCN4)ccc3o2)[nH]c2cc(C3=NCCN3)ccc12 | > 100 µM (inactive) | 34.4 µM (inactive) | 41.6 | 29.6 µM (inactive) | 32 µM (inactive) | 32.4 µM (inactive) | 43.6 µM (inactive) | 60.7 µM (inactive) |  | 28.9 µM (inactive) | 43.7 µM (inactive) | 34.1 µM (inactive) | > 100 µM (inactive) | > 100 µM (inactive) | 35.6 µM (inactive) | 38.3 µM (inactive) | 33.1 µM (inactive) | 39 µM (inactive) | 99.8 µM (inactive) | 39.1 µM (inactive)
